Measured values: US5484770A, “Peptide compounds which inhibit the proliferation of epidermal or epithelial stem cells” (Hafslund Nycomed Bioreg AS, priority 1988, dated 1996)
Where a SMILES comes first, the peptide text is derived from it. [ ]: non-standard residue; d: D form. pGlu = O=C1CC[C@@H](C(=O)O)N1

System: haemopoiesis
Test: inhibitory effect on haemopoiesis in vivo
Details: time at which the inhibitory effect occurs
Description: By contrast it is also possible to prepare peptides having a metabolically labile blocking group so that slow release of the unblocked peptide can be achieved in vivo. Thus according to a further aspect of the invention we provide compounds of formula [drawing 10] wherein R^a, R^b, R^c, R^e, R^f and n are as defined for formula I, R^12 is a metabolically labile group, for example a 2-pyridylthio group, and all amino acids have the chiral form stated for formula (I).

NCCCC[C@H](NC(=O)[C@H](CS)NC(=O)[C@H](CC(=O)O)NC(=O)[C@H](CCC(=O)O)NC(=O)[C@@H]1CCC(=O)N1)C(=O)O [Example 1, L-PYROGLUTAMYL-L-GLUTAMYL-L-ASPARTYL-L-CYSTEINYL-L-LYSINE] ([pGlu]EDCK-OH)
inhibitory effect on haemopoiesis, occurring after: 1 days
